Reference: patent publication US20010038832A1, “Nitric oxide and analogues thereof effectuate sensitization of neoplasm and immunologically undesired tissues to cytotoxicity” (priority 2000, published 2001)

Tests used:
Format in all cases: cell-based
AD10 cells [1] = experiment: Fas-mediated cytotoxicity (CH11, LDH release), AD10 cells
Method: (§1) In a preferred embodiment, A2780 and AD10 cells (1×10^4 cells/well) were cultured in 96-well plates supplemented with 10%FCS and pretreated with increasing concentrations of IFN-γ (0, 10, 100 and 1000 U/mL) 18 h prior to performing the cytotoxicity assay with increasing concentrations of the anti-Fas agonist antibody CH11 (0, 0.01, and 0.1 μg/mL).
(§2) Now also referring to FIGS. 3A and B, therein the role of iNOS in the mechanism of sensitization to Fas-mediated cytotoxicity of ovarian carcinoma cells is illustrated. Ovarian carcinoma cells, A2780 and AD10, were respectively incubated in the presence or in the absence of the competitive NOS inhibitor L-NMA (1 mM) 6 h prior to IFN-γ treatment. […] Furthermore, it is herein illustrated that the parental cell line A2780, which is not able to express iNOS upon IFN-γ stimulation, was not sensitized at the same level when compared with the adriamycin resistant cell line AD10, which is induced by IFN-γ alone to express iNOS.
(§3) The role of the endogenously generated NO in the IFN-γ-mediated sensitization to Fas-induced apoptosis was corroborated by the use of an exogenous source of NO, which mimics the production of NO by iNOS. […]
(§4) This example describes a preferred method of determining cytotoxicity. Sensitization to Fas-mediated apoptosis was assessed using the agonist anti-Fas monoclonal antibody CH11(IgM) [0.01, 0.1 and 1 μg/mL] […] After the initial incubation for each different experimental condition, released LDH into the culture supernatants was measured with a 30-minute coupled enzymatic assay which results in the conversion of a tetrazolium salt (INT) into a red formazan product that is read at 490 nm in an automated plate reader (Emax, Molecular Devices, Sunnyvale, Calif.). Percentage cytotoxicity was calculated using the spontaneous release-corrected OD as follows: % cytotoxicity=(OD of experimental well/OD of maximum release control well)×100.

A2780 cells = experiment: Fas-mediated cytotoxicity (CH11, LDH release), A2780 cells
Method: as §1, §2, §3, §4

AD10 cells [2] = experiment: Apoptosis by acridine orange/ethidium bromide staining, AD10 cells
Method: Now referring to FIGS. 5a through f, sensitization of AD10 to CH11 (Fas-ligand agonist)-mediated cytotoxicity was due to apoptosis. The morphological pattern was examined by staining the ovarian carcinoma cells with acridine orange/ethidium bromide (AO/EB).
This example describes one preferred embodiment for determining apoptosis through acridine orange/ethidium bromide staining. Characteristic apoptotic morphological changes were assessed by fluorescent microscopy using the acridine-orange and ethidium bromide staining (AO/EB) method. Briefly, adherent cells, under different experimental conditions, were cultured in 24 wells plates, and washed with PBS once prior to staining. Monolayers of adherent cells were covered with 100 μl of AO/EB solution (4 μg/mL of each). Immediately after adding the AO/EB solution, each sample was examined under an inverted/fluorescent microscope.

[3] = tested on: Fas receptor mRNA in AD10 cells; experiment: Fas receptor mRNA expression by RT-PCR, AD10 cells
[4] = tested on: Fas receptor protein in AD10 cells; experiment: Fas receptor protein level by Western blot, AD10 cells; details: FIG. 6C
Method: Now referring to FIG. 6C, the upregulation of Fas receptor was corroborated by Western blot. IFN-γ induced AD10 cells (1×10^7/plate) were cultured in a 100-mm plate supplemented with 10% FCS.
This example describes one preferred method of determining protein expression. Cell extracts for iNOS and Fas receptor analysis were prepared by lysing 5×10^6 cells in 1 mL phosphate buffer solution [10 mM EDTA, 1% triton X-100, 1 mM Phenylmethylsulfonyl fluoride (PMSF) and 0.01% leupeptin]. Cell lysates were boiled (3 min) with 1 volume gel loading buffer [50 mM Tris/10% sodium dodecyl sulfate (SDS)/10% glycerol/10% 2-mecaptoethanol/2 mg/mL bromophenol blue] and centrifuged at 1×10^4 g for 10 min. Protein concentrations of the supernatants were determined according to Bradford, and total protein equivalents for each sample were separated on 12% SDS-polyacrylamide minigels (Bio-Rad, Richmond, Calif.) and transferred to nitrocellulose membranes (Amersham Corp., Arlington Heights, Ill.). Nonspecific immunoglobulin G (IgG) binding sites were blocked with 5% dried milk protein, and samples were then incubated with the antibody to iNOS [1:1000] (Transduction Laboratories, Lexington, Ky.) or CD95 [1:500] (PharMingen, San Diego, Calif.).

[5] = tested on: Fas surface molecule on AD10 cells; experiment: Fas surface molecule expression by flow cytometry, AD10 cells
Method: (§5) This example describes one preferred method of separating and sorting cells through fluorescence-activated cell sorting (FACS). Surface Fas antigen expression on tumor cells was determined by flow cytometry. Briefly, harvested cells were washed with cold buffer consisting of PBS without Ca^++ or Mg^++ with 2% heat-inactivated FCS and 0.1% sodium azide. 2×10^5 cells per sample were pretreated with human AB serum (Gemini Bioproducts, Calabasas, Calif.) for 1 h, washed twice and resuspended in 50 μl of PBS. The cells were incubated with 10 μg/mL of anti-Fas monoclonal antibody FITC-conjugated (PharMingen, San Diego, Calif.) or isotype control antibody for 1 h. The cells were then washed twice and fixed in 2% paraformaldehyde solution (Sigma Chemical Co., St. Louis, Mo.) and flow cytometry was conducted all the FACScan facility of the UCLA Department of Microbiology and Immunology.

[6] = tested on: NO production by iNOS in AD10 cells; experiment: NO2-/NO3- release into culture medium (Griess reaction), AD10 cells; details: FIG. 1B
Method: (§6) The activity of iNOS and generated NO were monitored by the release of NO2^−/NO3^− into the cell culture medium as determined by the Griess reaction.
(§7) This example describes one preferred method of determining nitrate and nitrite concentrations. Nitric oxide generation was monitored indirectly by levels of nitrite/nitrate (NO2^−/NO3^−) released into the culture medium as determined by the diazotization reaction of Griess with NaNO2 as standard Briefly, 50 μl aliquots of cell culture supernatants from each sample were mixed with one volume of Griess reagent [1% sulfanilamide; 0.1% naphthylethylene diamine dihydrochloride; 2.5% H3PO4] and incubated at room temperature for 10 min. The absorbance at 550 nm was measured in an automated plate reader (Emax, Molecular Devices, Sunnyvale, Calif.). Nitrite concentrations were calculated by comparison with OD550 values of standard solutions of sodium nitrite prepared in culture medium.

[7] = tested on: iNOS mRNA in AD10 ovarian carcinoma cells; experiment: iNOS mRNA expression by semiquantitative RT-PCR in AD10 cells; details: 18 hours, FIG. 1A
[8] = tested on: iNOS expression in A2780 ovarian carcinoma cell line; experiment: iNOS expression in A2780 cells; details: parental A2780 cell line, data not shown
[9] = tested on: NO generation in A2780 cells; experiment: NO generation upon IFN-γ stimulation, A2780 cells
Method: as §6, §7

[10] = tested on: Fas surface molecule on A2780 cells; experiment: Fas surface molecule expression by flow cytometry, A2780 cells; details: A2780, FIG. 6D legend
Method: as §5

## CC(=O)N[C@H](C(=O)O)C(C)(C)SN=O (racemic) [SNAP, S-Nitroso-N-acetylpenicillamine]
AD10 cells [1]; AD10, NO donor 10 and 100 μM for 24 h before CH11, LDH release, FIG. 4B
  sensitization to Fas-mediated cytotoxicity by NO donor: sensitized
A2780 cells; A2780, NO donor 10 and 100 μM for 24 h before CH11, LDH release, FIG. 4A
  sensitization to Fas-mediated cytotoxicity by NO donor: sensitized
AD10 cells [2]; AD10, NO donor alone, no CH11
  number of apoptotic cells, NO donor alone: did not increase the number of apoptotic cells
AD10 cells [2]; AD10, SNAP prior to exposure to CH11
  frequency of cells undergoing apoptosis, NO donor prior to CH11: increased the frequency of cells undergoing characteristic apoptosis
[3]; AD10, SNAP 0, 1, 10 and 100 μM, 18 h, FIG. 6A
  Fas receptor mRNA expression with NO donor: upregulated Fas receptor mRNA expression
[4]
  Fas protein level after addition of SNAP to IFN-γ plus NOS inhibitor: restored
[5]; AD10, FIG. 6D
  Fas surface expression after NO donor added to IFN-γ plus NOS inhibitor: restored

## CNC(=N)NCCC[C@H](N)C(=O)O [L-NMA, N^G-Monomethyl-L-arginine]
[6]; L-NMA 1.0 mM prior to IFN-γ induction
  effect of NOS inhibitor on IFN-γ-induced NO2-/NO3- generation: blocking the generation of NO2^−/NO3^−
AD10 cells [1]; AD10, L-NMA 1 mM 6 h prior to IFN-γ, FIG. 3B
  effect of NOS inhibition on IFN-γ-mediated sensitization to Fas-mediated apoptosis: significantly decreased
A2780 cells; A2780, L-NMA 1 mM 6 h prior to IFN-γ, FIG. 3A
  effect of NOS inhibition on IFN-γ-mediated sensitization to Fas-mediated apoptosis: did not respond to NOS blocking
AD10 cells [2]; AD10, L-NMA 1 mM 6 h prior to IFN-γ pretreatment, then CH11
  frequency of cells undergoing apoptosis with NOS inhibitor: significantly reduced
[3]; AD10, IFN-γ 10 and 100 U/mL, L-NMA 1.0 mM, 24 hours, FIG. 6B
  Fas mRNA expression with NOS blocking: markedly reduced
[4]
  IFN-γ mediated upregulation of Fas protein level in presence of NOS inhibitor: markedly reduced
[5]; AD10, IFN-γ 10 U/mL, FIG. 6D
  IFN-γ-increased Fas surface expression with NOS inhibitor: partially blocked

## IFN-γ: human recombinant IFN-γ, gamma interferon cytokine
[7]; 1% FCS
  IFN-γ concentration at which significant levels of iNOS mRNA were observed: 1 U/mL
[7]
  IFN-γ concentration at which plateau of iNOS mRNA expression was reached: 100 U/mL
[8]
  iNOS expression upon IFN-γ treatment: not possible to detect any iNOS expression
[6]; IFN-γ 0 to 1000 U/ml, 18 hours
  production of NO (nitrites and nitrates in culture medium) upon IFN-γ: can be induced by IFN-γ to produce NO by iNOS
[9]
  NO generation upon IFN-γ stimulation: cannot generate NO
AD10 cells [2]; AD10, IFN-γ 18 h then CH11 0.1 μg/mL 6 h
  frequency of cells undergoing apoptosis vs untreated control group: greater frequency of cells undergoing apoptosis
[4]
  Fas protein level with IFN-γ: upregulation of Fas protein level
[5]; AD10, IFN-γ 10 U/mL, 18 hours, FIG. 6D
  expression of Fas surface molecule vs untreated control cells: increased expression
[10]
  expression of Fas surface molecule with IFN-γ: increased expression

B1: IFN-γ: human recombinant IFN-γ, gamma interferon cytokine (protein, UniProt P01579 24-161, looked up)
Interferon gamma: QDPYVKEAENLKKYFNAGHSDVADNGTLFLGILKNWKEESDRKIMQSQIVSFYFKLFKNFKDDQSIQKSVETIKEDMNVKFFNSNKKKRDDFEKLTNYSVTDLNVQRKAIHELIQVMAELSPAAKTGKRKRSQMLFRG
AD10 cells [1]; AD10, IFN-γ pretreatment 18 h, then CH11, FIG. 2B
  sensitization to Fas-mediated cytotoxicity compared with untreated control group: 10 fold
A2780 cells; A2780 compared with AD10, IFN-γ 18 h then CH11, FIG. 2A
  capacity of being sensitized by IFN-γ to Fas-mediated cytotoxicity: lower capacity of being sensitized
